Target: T1, tandem Tudor domain (TTD) of UHRF1 (Homo sapiens, UniProt Q96T88)
T1 construct: UHRF1 (aa 126–285); His (N, cleaved yes); made in house; host or cells: E. coli BL21 (DE3) Codon plus RIL
Assay: Fluorescein polarization-based peptide displacement screen
Assay type: binding
Conditions: 2 mM compound, 8 μM UHRF1 TTD, 40 nM FITC-H3K9me3 peptide; hit = signal less than 50% of negative control
Method: A small molecule fragment library with 2040 compounds was screened against TTD of UHRF1 by fluorescein polarization-based peptide displacement assay according to previous reports. Briefly, the screening was performed in 10 μL at a protein concentration of 8 μM premixed with a 40 nM FITC-labeled H3K9me3 peptide (aa 1–25, Tufts University Core Services), and then adding a single concentration of 2 mM compound in a buffer of 20 mM Tris-HCl, pH 8.8, 50 mM NaCl, and 0.01% Triton X-100. The hits were further confirmed by dose response analysis with 1 mM as the highest concentration with 11 sequential 2-fold dilutions. All the assays were performed in duplicate in 384-well plates (Greiner, 784290), using the Synergy 4 microplate reader (BioTek), with an excitation wavelength of 485 nm and an emission wavelength of 528 nm. Data were corrected by background of the free labeled peptides and analyzed by GraphPad Prism version 5 software. […]
Tris -HCl, pH 8.8, 50 mM NaC l, and 0.01% Triton X - 100. […] All the assays were performed in duplicate in 384 -well plates (Greiner, 784290), usi ng the Synergy 4 microplate reader (BioTek), with an excitation wavelength of 485 nm and an emission wavelength of 528 nm. Data were corrected by background of the free labeled peptides and analyzed by GraphPad […]
Detection instrument and software Synergy 4 microplate reader (BioTek), GraphPad […]

T1 sequence (Q96T88 126-285): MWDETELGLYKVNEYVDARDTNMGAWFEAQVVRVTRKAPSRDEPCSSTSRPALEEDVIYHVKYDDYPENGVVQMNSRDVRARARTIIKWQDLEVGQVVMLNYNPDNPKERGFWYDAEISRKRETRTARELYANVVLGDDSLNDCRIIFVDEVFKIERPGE

## Cn1c2c(c(=N)c3c1CCC3)CCC2 [Compound 1, 4-methyl-2,3,4,5,6,7-hexahydrodicyclopenta[b,e]pyridin-8(1H)-imine]
  outcome of fragment screen: hit

Source: paper PMC9481570, “A small molecule antagonist of SMN disrupts the interaction between SMN and RNAP II” (Nature Communications, 2022)
